For 1 compound, IC50 and Ki results are on record in patent US9611503B2, “Escherichia coli cell line with thyA knockout and folA knockout” (priority 2011, dated 2017).

Assay [1] concerns E. coli thyA folA KO + Pf TM4. Kind of assay: microbe, parasite or virus in culture. Format: cell-based. Conditions: Escherichia coli; host expressing P. falciparum TM4 DHFR-TS; minimal media with ampicillin, 37 degrees Celsius, 6 hours, OD 600 nm.
Assay [2] has as its system E. coli thyA folA KO + Pf K1. As to the kind of experiment: microbe, parasite or virus in culture. Format: cell-based. Conditions: Escherichia coli; host expressing P. falciparum K1 DHFR-TS; minimal media with ampicillin, 37 degrees Celsius, 6 hours, OD 600 nm.
Assay [3] deals with E. coli thyA folA KO + Pv wt. Kind of assay: microbe, parasite or virus in culture. Format: cell-based. Conditions: Escherichia coli; host expressing P. vivax wildtype DHFR-TS; 6 hours, OD 600 nm.
Assay [4] relates to E. coli thyA folA KO + Pv mt. As to the kind of experiment: microbe, parasite or virus in culture. To be noted: Escherichia coli; host expressing P. vivax sp21 double mutant DHFR-TS; 6 hours, OD 600 nm. Format: cell-based.
The subject of assay [5] is E. coli thyA folA KO + Pm wt. As to the kind of experiment: microbe, parasite or virus in culture. The assay is classed as cell-based. Conditions: Escherichia coli; host expressing P. malariae wildtype DHFR-TS; 6 hours, OD 600 nm.
The subject of assay [6] is E. coli thyA folA KO + Tb wt. As to the kind of experiment: microbe, parasite or virus in culture. To be noted: Escherichia coli, 6 h. Format: cell-based.
Assay [7] has as its system E. coli thyA folA KO + Tg wt. Kind of assay: microbe, parasite or virus in culture. Format: cell-based. To be noted: Escherichia coli; host expressing Toxoplasma gondii wildtype DHFR-TS; 6 hours, OD 600 nm.
Assay [8] has as its system E. coli thyA folA KO + Tg mt. As to the kind of experiment: microbe, parasite or virus in culture. The assay is classed as cell-based. Conditions: Escherichia coli; host expressing Toxoplasma gondii double mutant DHFR-TS; 6 hours, OD 600 nm.
Assay [9] deals with E. coli thyA folA KO + Lm wt. As to the kind of experiment: microbe, parasite or virus in culture. Format: cell-based. To be noted: Escherichia coli; host expressing Leishmania major DHFR-TS; 6 hours, OD 600 nm.
The target of assay [10] is DHFR-TS from Plasmodium malariae (wildtype) (Plasmodium malariae, UniProt A0A1D3JLL1). Kind of assay: In vitro biochemical enzyme inhibition assay, purified DHFR-TS. To be noted: purified P. malariae wildtype DHFR-TS.
Sequence of DHFR-TS from Plasmodium malariae (wildtype) (A0A1D3JLL1 entry or part of it): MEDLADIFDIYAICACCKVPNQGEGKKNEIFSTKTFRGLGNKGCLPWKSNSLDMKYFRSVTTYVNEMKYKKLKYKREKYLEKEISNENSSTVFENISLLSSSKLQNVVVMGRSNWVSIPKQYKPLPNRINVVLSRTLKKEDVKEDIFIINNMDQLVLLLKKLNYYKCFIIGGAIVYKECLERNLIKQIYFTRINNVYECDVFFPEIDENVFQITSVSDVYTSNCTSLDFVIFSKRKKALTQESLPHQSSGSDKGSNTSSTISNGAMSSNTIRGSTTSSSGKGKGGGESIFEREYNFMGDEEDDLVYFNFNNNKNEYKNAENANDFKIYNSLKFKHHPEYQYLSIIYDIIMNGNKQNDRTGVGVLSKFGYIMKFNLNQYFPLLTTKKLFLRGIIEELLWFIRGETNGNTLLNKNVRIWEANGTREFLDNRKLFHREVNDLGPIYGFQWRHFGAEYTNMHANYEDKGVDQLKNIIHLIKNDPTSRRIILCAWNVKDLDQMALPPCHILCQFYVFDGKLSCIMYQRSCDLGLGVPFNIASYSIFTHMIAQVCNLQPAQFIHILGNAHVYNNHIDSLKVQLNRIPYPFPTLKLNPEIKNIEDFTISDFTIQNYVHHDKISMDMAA

As to `CCc1nc(N)nc(N)c1-c1ccc(Cl)cc1` [Pyrimethamine], the IC50 in assay [1] is 0.07 ± 0.01 µM; in [2] it was 31.93 ± 0.16 µM; in [3], 3.08 ± 0.33 µM; in [4], over 100 µM; in assay [5], 0.77 ± 0.22 µM; in [6], over 100 µM. Further, the half-inhibitory concentration (IC50) in [7], in [8] and in assay [9] was over 100 µM throughout. Further, the inhibition constant Ki in assay [10] turned out to be 0.00054 ± 6e-05 µM.

The term IC50 denotes the midpoint of a concentration-inhibition curve. For orientation: Ki means a dissociation constant, usually derived from enzyme kinetics or from competition with a known ligand. High values mean lower affinity, low ones higher affinity.
